Experimental data published in paper PMC12118337, “Development of a Peptide Inhibitor Targeting the C‐SH2 Domain of the SHP2 Phosphatase” (Chembiochem, 2025).
Non-standard residues stand in square brackets, D forms with d. Residues, ends and D or L forms follow the SMILES beside them. *: point of attachment. 5FAM = O=C1OC2(c3ccc(O)cc3Oc3cc(O)ccc32)c2ccc(C(=O)*)cc21; F2Pmp = N[C@@H](Cc1ccc(C(F)(F)P(=O)(O)O)cc1)C(=O)O; pY = N[C@@H](Cc1ccc(OP(=O)(O)O)cc1)C(=O)O

Assays:
[1] = target: T1, SHP2 C‐SH2 domain (Homo sapiens, UniProt Q06124); assay: Fluorescence polarization (FP) binding assay, SHP2 C-SH2 domain; conditions: 100 nM FAM-labelled peptide; for Kd: increasing C-SH2 protein, 50 mM HEPES pH 7.5, 150 mM NaCl, 1 mM EDTA, 0.05% Tween 20, FP at 10 min, three independent experiments in technical triplicates, read-out: K D ± SEM, C‐SH2 (FP)
T1 construct: SHP2 N-SH2 domain (1–105), C-SH2 domain (106–220), PTP domain (224–541) and; His6 (pETM22 vector) (N, cleaved yes); made in house; host or cells: E. coli BL21(DE3)
T1 sequence (Q06124 106-220): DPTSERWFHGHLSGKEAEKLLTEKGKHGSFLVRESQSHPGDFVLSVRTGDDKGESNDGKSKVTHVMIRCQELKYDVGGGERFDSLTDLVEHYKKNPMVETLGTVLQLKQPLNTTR
Protocol: (§1) buffer and stored in 5 mL binding buffer at 4°C. His-tagged 3C protease (0.5 mg; EMBL) was added to the pooled eluted fractions and dialysed using Spectra Por Dialysis Tubing (MWCO 6-8 kDa, 23 mm; Spectrum Labs) in 1 L of binding buffer at 4°C for 3 hours, then overnight in fresh buffer. A new column was prepared by loading 2 mL Ni-NTA Agarose (Invitrogen) as a 50% slurry in EtOH. The column was washed with 10 mL H2O to remove the EtOH and equilibrated with 10 mL binding buffer. The protein/3C protease mixture was loaded onto the column and incubated for 1 hour at 4°C on a rocker. The flow through containing the protein was collected, the column was washed with 100 mL binding buffer and the 3C protease was eluted with 5 mL elution buffer. Protein purification was monitored by SDS-PAGE using NuPAGE 4-12% Bis-Tris Protein Gels (Invitrogen) run in MOPS buffer (50 mM MOPS, 50 mM Tris-HCl pH 7.7, 1 mM EDTA, 0.1% SDS) followed by Coomassie staining using Coomassie Brilliant Blue (Roth). The purified protein was dialysed into the final storage buffer (50 mM HEPES pH 7.5, 150 mM NaCl, 2 mM DTT, 20% glycerol). Aliquots were prepared and stored at -80°C until required. […]
(§2) 4. Fluorescence polarization
(§3) Fluorescence polarization (FP) was used to measure the binding of FAM-labelled peptides to the SHP2 C-SH2, SHP2 N-SH2, SHP2 PTP, CSK SH2 or Src SH2 domains. Each peptide was added to increasing concentrations of SHP2 C-SH2, SHP2 N-SH2, SHP2 PTP, CSK SH2 or Src SH2 protein in FP buffer (50 mM HEPES pH 7.5, 150 mM NaCl, 1 mM EDTA, 0.05% Tween 20) to give a final peptide […]
(§4) concentration of 100 nM in a final volume of 200 µL. For baseline subtraction, each peptide was added to FP buffer, instead of protein, with a final peptide concentration of 100 nM in a final volume of 200 µL. Samples were mixed gently then 3 x 60 µL of each sample was transferred into triplicate wells in a 96-well plate (OptiPlate-96 F Black; PerkinElmer). The FP was immediately measured on a Synergy H1 Microplate Reader (BioTek) with the excitation and emission monitored at 485 nm and 528 nm, respectively, over 30 minutes. FP values were automatically calculated by the Gen5 3.03 (BioTek) software associated with the microplate reader. Data were analysed in Excel 2016 by subtracting baseline values from FP values at 10 minutes. Data were then further analysed in GraphPad Prism 6 by plotting the baseline subtracted FP values against the protein concentration and fitting the data to a variable slope model of non-linear regression to obtain the KD values. Data are from three independent experiments, each performed in technical triplicates.
(§5) 5. Isothermal titration calorimetry […]
(§6) Analysis Software (Malvern Panalytical). For the data analysis, a 1:1 binding stoichiometry between the Ac-ITSM(pTyr) and SH2 domain was assumed. ITC measurements were performed once.

[2] = target: T2, SHP2 N‐SH2 domain (Homo sapiens, UniProt Q06124); assay: Fluorescence polarization (FP) binding assay, SHP2 N-SH2 domain; conditions: 100 nM FAM-labelled peptide; for Kd: increasing N-SH2 protein, 50 mM HEPES pH 7.5, 150 mM NaCl, 1 mM EDTA, 0.05% Tween 20, FP at 10 min, three independent experiments in technical triplicates, read-out: K D ± SEM, N‐SH2 (FP)
T2 construct: SHP2 N-SH2 domain (1–105), C-SH2 domain (106–220), PTP domain (224–541) and; His6 (pETM22 vector) (N, cleaved yes); made in house; host or cells: E. coli BL21(DE3)
T2 sequence (Q06124 1-105): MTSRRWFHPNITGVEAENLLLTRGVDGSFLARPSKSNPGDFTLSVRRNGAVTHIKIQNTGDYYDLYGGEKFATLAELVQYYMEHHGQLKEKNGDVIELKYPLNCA
Protocol: as §1, §2, §3, §4, §5, §6

Q: CC[C@H](C)[C@H](NC(=O)[C@@H](NC(=O)[C@H](C)NC(=O)[C@H](Cc1ccc(OP(=O)(O)O)cc1)NC(=O)[C@H](CCC(=O)O)NC(=O)[C@@H](NC(=O)[C@H](CCC(N)=O)NC(=O)[C@H](CCC(=O)O)NC(=O)c1ccc2c(c1)C(=O)OC21c2ccc(O)cc2Oc2cc(O)ccc21)[C@@H](C)O)[C@@H](C)O)C(=O)N[C@H](C(=O)N[C@@H](C)C(=O)N1CCC[C@H]1C(N)=O)C(C)C [compound 8] (5FAM-EQTE[pY]ATIVAP-NH2) was tested. Which Kd [1] did it give?
A: 0.185 ± 0.0308 µM

Q: And the Kd [2]?
A: > 2 µM

Q: With CC[C@H](C)[C@H](NC(=O)[C@@H](NC(=O)[C@H](C)NC(=O)[C@H](Cc1ccc(OP(=O)(O)O)cc1)NC(=O)[C@H](CCC(=O)O)NC(=O)[C@@H](NC(=O)[C@H](CCC(N)=O)NC(=O)c1ccc2c(c1)C(=O)OC21c2ccc(O)cc2Oc2cc(O)ccc21)[C@@H](C)O)[C@@H](C)O)C(=O)N[C@@H](CCCCN)C(=O)N[C@@H](Cc1ccccc1)C(=O)N1CCC[C@H]1C(N)=O [compound 16] (5FAM-QTE[pY]ATIKFP-NH2) as the compound, how does the Kd [1] read?
A: 0.086 ± 0.00243 µM

Q: What about the Kd [2] of the same compound?
A: 1.09 ± 0.199 µM

Q: For CC[C@H](C)[C@H](NC(=O)[C@@H](NC(=O)[C@H](C)NC(=O)[C@H](Cc1ccc(C(F)(F)P(=O)(O)O)cc1)NC(=O)[C@H](CCC(=O)O)NC(=O)[C@@H](NC(=O)[C@H](CCC(N)=O)NC(=O)[C@H](CCC(=O)O)NC(=O)c1ccc2c(c1)C(=O)OC21c2ccc(O)cc2Oc2cc(O)ccc21)[C@@H](C)O)[C@@H](C)O)C(=O)N[C@H](C(=O)N[C@@H](Cc1ccccc1)C(=O)N1CCC[C@H]1C(N)=O)C(C)C [FAM‐ITSM(F2Pmp)] (5FAM-EQTE[F2Pmp]ATIVFP-NH2), which “binding to the C‐SH2 domain, in words” value [1] is on record?
A: marked decrease in binding affinity

Q: And the Kd [1]?
A: > 2 µM

Q: What about the “binding to the N‐SH2 domain, in words” value [2] of the same compound?
A: slightly better binding than FAM‐ITSM(L‐OMT)

Q: What about the Kd [2] of the same compound?
A: 1.39 ± 0.063 µM

Q: For CC[C@H](C)[C@H](NC(=O)[C@@H](NC(=O)[C@H](C)NC(=O)[C@H](Cc1ccc(OP(=O)(O)O)cc1)NC(=O)[C@H](CCC(=O)O)NC(=O)[C@@H](NC(=O)[C@H](CCC(N)=O)NC(=O)c1ccc2c(c1)C(=O)OC21c2ccc(O)cc2Oc2cc(O)ccc21)[C@@H](C)O)[C@@H](C)O)C(=O)N[C@@H](CCCCN)C(=O)N[C@@H](Cc1ccc(O)cc1)C(=O)N1CCC[C@H]1C(N)=O [compound 17] (5FAM-QTE[pY]ATIKYP-NH2), which Kd [1] is on record?
A: 0.116 ± 0.0077 µM

Q: What about the Kd [2] of the same compound?
A: > 3 µM

Q: What does the source list for CC[C@H](C)[C@H](NC(=O)[C@@H](NC(=O)[C@H](C)NC(=O)[C@H](Cc1ccc(OP(=O)(O)O)cc1)NC(=O)[C@H](CCC(=O)O)NC(=O)[C@H](C)NC(=O)[C@H](CCC(N)=O)NC(=O)[C@H](CCC(=O)O)NC(=O)c1ccc2c(c1)C(=O)OC21c2ccc(O)cc2Oc2cc(O)ccc21)[C@@H](C)O)C(=O)N[C@H](C(=O)N[C@@H](Cc1ccccc1)C(=O)N1CCC[C@H]1C(N)=O)C(C)C [peptide 3] (5FAM-EQAE[pY]ATIVFP-NH2)?
A: Kd [1]: 0.135 ± 0.0046 µM; Kd [2]: 0.428 ± 0.0251 µM

Q: Which results are given for CC[C@H](C)[C@H](NC(=O)[C@@H](NC(=O)[C@H](C)NC(=O)[C@H](Cc1ccc(OP(=O)(O)O)cc1)NC(=O)[C@H](CCC(=O)O)NC(=O)[C@@H](NC(=O)[C@H](CCC(N)=O)NC(=O)c1ccc2c(c1)C(=O)OC21c2ccc(O)cc2Oc2cc(O)ccc21)[C@@H](C)O)[C@@H](C)O)C(=O)N[C@@H](CCCCN)C(=O)N[C@@H](Cc1c[nH]cn1)C(=O)N1CCC[C@H]1C(N)=O [peptide 18] (5FAM-QTE[pY]ATIKHP-NH2)?
A: Kd [1]: 0.0882 ± 0.00429 µM; Kd [2]: > 3 µM

Q: CC[C@H](C)[C@H](NC(=O)[C@@H](NC(=O)[C@H](C)NC(=O)[C@H](Cc1ccc(OP(=O)(O)O)cc1)NC(=O)[C@H](CCC(=O)O)NC(=O)[C@@H](NC(=O)[C@H](CCC(N)=O)NC(=O)[C@H](C)NC(=O)c1ccc2c(c1)C(=O)OC21c2ccc(O)cc2Oc2cc(O)ccc21)[C@@H](C)O)[C@@H](C)O)C(=O)N[C@H](C(=O)N[C@@H](Cc1ccccc1)C(=O)N1CCC[C@H]1C(N)=O)C(C)C [peptide 1] (5FAM-AQTE[pY]ATIVFP-NH2) was tested. Which Kd [1] did it give?
A: 0.062 ± 0.00198 µM

Q: What about the Kd [2] of the same compound?
A: 0.295 ± 0.0372 µM

Q: For CC[C@H](C)[C@H](NC(=O)[C@@H](NC(=O)[C@H](C)NC(=O)[C@H](Cc1ccc(OP(=O)(O)O)cc1)NC(=O)[C@H](C)NC(=O)[C@@H](NC(=O)[C@H](CCC(N)=O)NC(=O)[C@H](CCC(=O)O)NC(=O)c1ccc2c(c1)C(=O)OC21c2ccc(O)cc2Oc2cc(O)ccc21)[C@@H](C)O)[C@@H](C)O)C(=O)N[C@H](C(=O)N[C@@H](Cc1ccccc1)C(=O)N1CCC[C@H]1C(N)=O)C(C)C [compound 4] (5FAM-EQTA[pY]ATIVFP-NH2), which Kd [1] is on record?
A: 0.0951 ± 0.0144 µM

Q: What about the Kd [2] of the same compound?
A: 0.234 ± 0.0176 µM

Q: With CC[C@H](C)[C@H](NC(=O)[C@@H](NC(=O)[C@H](C)NC(=O)[C@H](Cc1ccc(OP(=O)(O)O)cc1)NC(=O)[C@H](CCC(=O)O)NC(=O)[C@@H](NC(=O)[C@H](CCC(N)=O)NC(=O)c1ccc2c(c1)C(=O)OC21c2ccc(O)cc2Oc2cc(O)ccc21)[C@@H](C)O)[C@@H](C)O)C(=O)N[C@@H](CCCCN)C(=O)N[C@@H](Cc1c[nH]c2ccccc12)C(=O)N1CCC[C@H]1C(N)=O [compound 13] (5FAM-QTE[pY]ATIKWP-NH2) as the compound, how does the Kd [1] read?
A: 0.0468 ± 0.00129 µM

Q: And the Kd [2]?
A: 0.368 ± 0.04 µM

Q: With CC[C@H](C)[C@H](NC(=O)[C@@H](NC(=O)[C@H](C)NC(=O)[C@H](Cc1ccc(OP(=O)(O)O)cc1)NC(=O)[C@H](CCC(=O)O)NC(=O)[C@@H](NC(=O)[C@H](C)NC(=O)[C@H](CCC(=O)O)NC(=O)c1ccc2c(c1)C(=O)OC21c2ccc(O)cc2Oc2cc(O)ccc21)[C@@H](C)O)[C@@H](C)O)C(=O)N[C@H](C(=O)N[C@@H](Cc1ccccc1)C(=O)N1CCC[C@H]1C(N)=O)C(C)C [peptide 2] (5FAM-EATE[pY]ATIVFP-NH2) as the compound, how does the Kd [1] read?
A: 0.0513 ± 0.00108 µM

Q: And the Kd [2]?
A: 0.058 ± 0.0046 µM

Q: For CC[C@H](C)[C@H](NC(=O)[C@@H](NC(=O)[C@H](C)NC(=O)[C@H](Cc1ccc(OP(=O)(O)O)cc1)NC(=O)[C@H](CCC(=O)O)NC(=O)[C@@H](NC(=O)[C@H](CCC(N)=O)NC(=O)[C@H](CCC(=O)O)NC(=O)c1ccc2c(c1)C(=O)OC21c2ccc(O)cc2Oc2cc(O)ccc21)[C@@H](C)O)[C@@H](C)O)C(=O)N[C@@H](CCCCN)C(=O)N[C@@H](Cc1ccccc1)C(=O)N1CCC[C@H]1C(N)=O [compound 9] (5FAM-EQTE[pY]ATIKFP-NH2), which Kd [1] is on record?
A: 0.072 ± 0.00261 µM

Q: What about the Kd [2] of the same compound?
A: > 2 µM
